Measured values: PMC11943507 (Marine Drugs, 2025)
Several values for one entry are separate records, joined by “and”; a condition that tells them apart may be missing. Equal values may be shown once. Entries after “also recorded” stand apart in the source; their conditions may differ. Read-outs that look alike come from different tables or passages of the source.

Assays:
[1] = target: T1, hNav1.1 (Homo sapiens, UniProt P35498); assay: cell-based; type: cell-based
[2] = target: T1, hNav1.1; type: cell-based
[3] = target: T1, hNav1.1; type: cell-based; remark: listed apart in the source
[4] = target: T1, hNav1.1; type: cell-based; remark: listed apart in the source
[5] = target: T1, hNav1.1
[6] = test system: Nav1.1; details: cited from earlier work
[7] = test system: Nav1.6; details: cited from earlier work
[8] = test system: Nav1.7; details: cited from earlier work

C=C1[C@@H](O)[C@@H]2O[C@]3(CC[C@H](/C=C/[C@@H](C)[C@@H]4CC(C)=C[C@@]5(O[C@H](C[C@@](C)(O)C(=O)O)CC[C@H]5O)O4)O3)CC[C@H]2O[C@@H]1[C@@H](O)C[C@H](C)[C@H]1O[C@@]2(CC[C@H]1C)OCCC[C@H]2C [DTX1, dinophysistoxin 1]
fluorescence signal in agonist mode concentration-response [1]: no significant increase
fluorescence intensity stimulated by 30 μM veratridine, inhibition mode concentration-response [2]: not significantly inhibited
agonist activity in initial screening [3]: did not exhibit any potential agonist or inhibitor activity
inhibitory effect in initial screening [4]: no significant inhibition; also recorded: did not exhibit any potential agonist or inhibitor activity

NC1=N[C@H](O)[C@H]2[C@H]3O[C@]4(O)O[C@@H]([C@@H](O)[C@@]2(N1)[C@@H]4O)[C@]3(O)CO [TTX, tetrodotoxin]
IC50 [2]: 0.0184 µM
inhibition of the channel-opening effect of 30 μM veratridine [2]: almost completely inhibited
suppression of hNav1.1 current signal [5]: almost completely suppressed
IC50 ([5]; read-out: IC50 determined by patch clamp): 0.00327 µM and ~0.00327 µM

COc1ccc(C(=O)O[C@H]2CC[C@@]3(C)[C@@H]4CC[C@H]5[C@]6(O)C[C@H](O)[C@@]7(O)[C@@H](CN8C[C@@H](C)CC[C@H]8[C@@]7(C)O)[C@]6(O)C[C@@]53O[C@]24O)cc1OC [veratridine]
fluorescence signal relative to the maximum fluorescence signal [1]: approximately 80%
EC50 ([1]; EC50): ~24 µM and 24 µM
peak amplitude of the sodium current [7]: enhanced
peak current [7]: suppressed
EC50 ([8]; read-out: EC50, tail and sustained currents): 9.53 µM
IC50 ([8]; read-out: IC50, inhibitory effect on the peak current): 18.4 µM
